ChEMBL document CHEMBL4725219, “Identification and in silico prediction of metabolites of tebufenozide derivatives by major human cytochrome P450 isoforms” (Bioorg Med Chem, 2020)

How the values were obtained:
[1] = target: T1, Cytochrome P450 3A4 (Homo sapiens, UniProt P08684); test: Drug metabolism in recombinant Saccharomyces cerevisiae AH22 cells expressing human CYP3A4 assessed as CYP3A4-mediated hydroxylation at methyl group of A-ring by measuring retention time of the metabolite at 39 uM incubated for 24 hrs by HPLC analysis; format: ADME; conditions: recombinant enzyme
T1 sequence (P08684 whole entry): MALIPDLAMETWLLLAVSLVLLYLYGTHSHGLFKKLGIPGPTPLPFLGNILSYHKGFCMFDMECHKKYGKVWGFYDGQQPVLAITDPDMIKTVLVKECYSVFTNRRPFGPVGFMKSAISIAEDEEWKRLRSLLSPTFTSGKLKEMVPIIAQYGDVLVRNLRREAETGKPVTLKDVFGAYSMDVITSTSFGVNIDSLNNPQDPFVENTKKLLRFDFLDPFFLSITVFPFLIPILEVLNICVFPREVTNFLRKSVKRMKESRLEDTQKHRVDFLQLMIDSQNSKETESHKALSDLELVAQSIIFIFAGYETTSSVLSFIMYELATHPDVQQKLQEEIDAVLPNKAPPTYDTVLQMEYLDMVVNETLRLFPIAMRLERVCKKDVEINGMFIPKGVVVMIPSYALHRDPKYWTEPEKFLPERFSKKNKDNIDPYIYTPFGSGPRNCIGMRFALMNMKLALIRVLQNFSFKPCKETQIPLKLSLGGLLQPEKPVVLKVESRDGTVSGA

[2] = target: T2, Cytochrome P450 1A2 (Homo sapiens, UniProt P05177); test: Drug metabolism in microsomes containing baculovirus expressing human CYP1A2 assessed as CYP1A2-mediated hydroxylation by LC/MS/MS analysis; format: ADME, Microsome
T2 sequence (P05177 whole entry): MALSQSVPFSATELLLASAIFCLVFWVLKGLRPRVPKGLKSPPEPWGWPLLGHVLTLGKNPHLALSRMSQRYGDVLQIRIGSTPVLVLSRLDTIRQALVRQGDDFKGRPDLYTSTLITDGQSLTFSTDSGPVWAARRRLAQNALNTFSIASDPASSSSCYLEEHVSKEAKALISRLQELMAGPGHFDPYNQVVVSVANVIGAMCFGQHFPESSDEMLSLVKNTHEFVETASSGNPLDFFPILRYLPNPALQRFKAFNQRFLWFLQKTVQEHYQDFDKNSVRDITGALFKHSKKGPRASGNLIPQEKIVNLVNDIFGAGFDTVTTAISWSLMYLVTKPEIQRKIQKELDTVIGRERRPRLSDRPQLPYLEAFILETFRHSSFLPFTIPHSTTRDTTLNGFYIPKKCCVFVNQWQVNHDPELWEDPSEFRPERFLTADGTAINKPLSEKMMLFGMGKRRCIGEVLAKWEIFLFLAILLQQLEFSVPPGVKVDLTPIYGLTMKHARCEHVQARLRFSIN

[3] = target: T1, Cytochrome P450 3A4; test: Drug metabolism in recombinant Saccharomyces cerevisiae AH22 cells expressing human CYP3A4 assessed as CYP3A4-mediated hydroxylation at t-butyl group by measuring retention time of the metabolite at 39 uM incubated for 24 hrs by HPLC analysis; format: ADME; conditions: recombinant enzyme
[4] = target: Cytochrome P450 2C9 (Homo sapiens, UniProt P11712); test: Drug metabolism in microsomes containing baculovirus expressing human CYP2C9 assessed as CYP2C9-mediated hydroxylation at methyl group of A-ring by LC/MS/MS analysis relative to control; format: ADME, Microsome
Chain of Cytochrome P450 2C9 (P11712 whole entry): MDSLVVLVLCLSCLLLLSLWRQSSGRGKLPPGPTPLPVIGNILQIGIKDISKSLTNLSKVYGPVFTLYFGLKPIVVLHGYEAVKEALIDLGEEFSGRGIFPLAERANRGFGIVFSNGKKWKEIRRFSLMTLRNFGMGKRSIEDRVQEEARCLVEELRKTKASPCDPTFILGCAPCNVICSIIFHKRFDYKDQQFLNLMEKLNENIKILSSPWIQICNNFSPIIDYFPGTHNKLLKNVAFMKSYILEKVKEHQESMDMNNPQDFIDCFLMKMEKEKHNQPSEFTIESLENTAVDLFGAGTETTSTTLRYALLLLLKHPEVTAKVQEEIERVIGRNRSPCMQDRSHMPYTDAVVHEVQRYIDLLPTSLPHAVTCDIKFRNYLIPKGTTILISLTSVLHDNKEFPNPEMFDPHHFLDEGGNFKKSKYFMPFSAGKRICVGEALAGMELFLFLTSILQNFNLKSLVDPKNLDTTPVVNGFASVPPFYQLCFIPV

[5] = target: T1, Cytochrome P450 3A4; test: Drug metabolism in recombinant Saccharomyces cerevisiae AH22 cells expressing human CYP3A4 assessed as CYP3A4-mediated hydroxylation at methyl group of B-ring by measuring retention time of the metabolite at 39 uM incubated for 24 hrs by HPLC analysis; format: ADME; conditions: recombinant enzyme
[6] = target: Cytochrome P450 2D6 (Homo sapiens, UniProt P10635); test: Drug metabolism in microsomes containing baculovirus expressing human CYP2D6 assessed as CYP2D6-mediated hydroxylation at methyl group of A-ring by LC/MS/MS analysis relative to control; format: ADME, Microsome
Chain of Cytochrome P450 2D6 (P10635 whole entry): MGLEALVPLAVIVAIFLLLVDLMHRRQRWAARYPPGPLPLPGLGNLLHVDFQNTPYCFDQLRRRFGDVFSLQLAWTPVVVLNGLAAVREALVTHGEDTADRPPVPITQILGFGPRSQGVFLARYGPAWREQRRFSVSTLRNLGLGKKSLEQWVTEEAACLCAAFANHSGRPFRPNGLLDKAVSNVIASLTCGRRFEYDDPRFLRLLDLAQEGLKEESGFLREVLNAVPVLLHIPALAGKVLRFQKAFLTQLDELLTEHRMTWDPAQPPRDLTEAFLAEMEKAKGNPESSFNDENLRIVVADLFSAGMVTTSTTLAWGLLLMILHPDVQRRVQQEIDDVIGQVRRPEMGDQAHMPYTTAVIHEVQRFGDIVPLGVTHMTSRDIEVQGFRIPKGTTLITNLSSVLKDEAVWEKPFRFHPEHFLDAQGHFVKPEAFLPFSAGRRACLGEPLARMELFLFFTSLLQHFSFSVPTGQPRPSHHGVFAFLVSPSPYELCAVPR

[7] = Drug metabolism in recombinant Saccharomyces cerevisiae AH22 cells expressing human CYP3A4/CYP2C9 assessed as CYP-mediated hydroxylation at methyl group of A-ring by measuring retention time of the metabolite at 100 uM incubated for 24 hrs by HPLC analysis; format: ADME
[8] = Drug metabolism in recombinant Saccharomyces cerevisiae AH22 cells expressing human CYP3A4/CYP2C9 assessed as CYP-mediated hydroxylation at CH-isopropyl group of B-ring by measuring retention time of the metabolite at 100 uM incubated for 24 hrs by HPLC analysis; format: ADME
[9] = Drug metabolism in recombinant Saccharomyces cerevisiae AH22 cells expressing human CYP3A4/CYP2C9 assessed as CYP-mediated hydroxylation at CH3-isopropyl group of B ring by measuring retention time of the metabolite at 100 uM incubated for 24 hrs by HPLC analysis; format: ADME

Row | Retention_time [1] | Drug metabolism [2] | Retention_time [3] | Drug metabolism [4] | Retention_time [5] | Drug metabolism [6] | Retention_time [7] | Retention_time [8] | Retention_time [9] | Compound
1 | 17.4 min | Metabolite_Notdetected | 16.1 min | Metabolite_Detected | 16.1 min | Metabolite_Detected |  |  |  | Cc1cccc(C(=O)NN(C(=O)c2cc(C)cc(C)c2)C(C)(C)C)c1
2 |  | Metabolite_Notdetected |  |  |  |  |  |  |  | Cc1cc(C)cc(C(=O)N(NC(=O)c2ccccc2C)C(C)(C)C)c1
3 |  | Metabolite_Notdetected |  |  |  |  | 17.7 min | 13.9 min | 12 min | Cc1cc(C)cc(C(=O)N(NC(=O)c2ccc(C(C)C)cc2)C(C)(C)C)c1
